Laboratory results published in US11976057B2, “MrgX2 antagonists” (GlaxoSmithKline Intellectual Property Development Limited, priority 2020, dated 2024).

Target: T1, human MRGPRX2 (Homo sapiens, UniProt Q96LB1)
T1 sequence (Q96LB1 1-330): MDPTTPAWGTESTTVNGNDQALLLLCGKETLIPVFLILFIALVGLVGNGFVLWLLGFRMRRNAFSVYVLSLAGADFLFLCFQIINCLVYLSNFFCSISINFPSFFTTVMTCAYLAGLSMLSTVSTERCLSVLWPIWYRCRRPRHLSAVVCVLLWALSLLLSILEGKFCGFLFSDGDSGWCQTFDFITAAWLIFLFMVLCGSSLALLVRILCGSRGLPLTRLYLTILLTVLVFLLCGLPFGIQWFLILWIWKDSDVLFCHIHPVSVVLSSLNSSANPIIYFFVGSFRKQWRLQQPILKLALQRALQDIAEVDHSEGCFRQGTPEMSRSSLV
Experiment: Ca2+ mobilization assay (FLIPR TETRA): inhibition of Cortistatin-14 mediated MRGPRX2 activation

SMILES	IC50
CC(C(=O)Nc1ccc(C(O)c2ccc(F)cc2)cn1)N1CCC(F)(F)[C@@H](c2cc[n+]([O-])cc2)C1 (stereo partly drawn) [Example 129, 4-((3S)-4,4-difluoro-1-(1-((5-((4-fluorophenyl) (hydroxy)methyl)pyridin-2-yl)amino)-1-oxopropan-2-yl)piperidin-3-yl)pyridine 1-oxide]	3160 to 31600 nM
C[C@@H](C(=O)Nc1ccc(F)cn1)N1CCC(F)(F)[C@@H](c2c[nH]c(=O)c(CO)c2)C1 [Example 153, (S)-2-((S)-4,4-difluoro-3-(5-(hydroxymethyl)-6-oxo-1,6-dihydropyridin-3-yl)piperidin-1-yl)-N-(5-fluoropyridin-2-yl)propanamide]	100 to 3160 nM
C[C@@H](C(=O)Nc1ccc(F)cn1)N1CCC(F)(F)[C@@H](c2cc[n+]([O-])c(CC(F)(F)F)c2)C1 [Example 219]	10 to 100 nM
CC(C(=O)Nc1ncc(Oc2ccc(F)cn2)cc1F)N1CCC(F)(F)[C@@H](c2ccc(=O)[nH]c2)C1 (stereo partly drawn) [Example 91, 2-((S)-4,4-difluoro-3-(6-oxo-1,6-dihydropyridin-3-yl)piperidin-1-yl)-N-(3-fluoro-5-((5-fluoropyridin-2-yl)oxy)pyridin-2-yl)propanamide]	100 to 3160 nM
C[C@@H](C(=O)Nc1ccc(Oc2ncc(F)cc2F)cn1)[C@H]1CCC[C@@H](c2cc[n+]([O-])cc2)C1 [Example 290, 4-((1R,3S)-3-((R)-1-((5-((3,5-difluoropyridin-2-yl)oxy)pyridin-2-yl)amino)-1-oxopropan-2-yl)cyclohexyl)pyridine 1-oxide]	10 to 100 nM
C[C@@H](C(=O)Nc1ccc(Oc2ccc(F)cc2F)cn1)N1CCC(F)(F)[C@@H](c2cc[n+]([O-])c(C(N)=O)c2)C1 (single isomer, unassigned) [Example 258]	≤ 10 nM
CC(C(=O)Nc1ccc(CCC2CC2)cn1)N1CCC(F)(F)[C@@H](c2ccc(=O)[nH]c2)C1 (stereo partly drawn) [Example 21, N-(5-(2-cyclopropylethyl)pyridin-2-yl)-2-((S)-4,4-difluoro-3-(6-oxo-1,6-dihydropyridin-3-yl)piperidin-1-yl)propanamide]	10 to 100 nM
CC(C(=O)Nc1ccc(F)cn1)N1CCC(F)(F)C(c2c[nH]c(=O)c(C(N)=O)c2)C1 (stereo not drawn) [Example 253]	100 to 3160 nM
CC(C(=O)Nc1ccc(Cl)cn1)N1CCC(F)(F)C(c2c[nH]c(=O)c(CO)c2)C1 (stereo not drawn) [Example 155, N-(5-chloropyridin-2-yl)-2-(4,4-difluoro-3-(5-(hydroxymethyl)-6-oxo-1,6-dihydropyridin-3-yl)piperidin-1-yl)propanamide]	100 to 3160 nM
CC(C(=O)Nc1ccc(OCC2CC2)cn1)N1CC(c2ccc(=O)[nH]c2)C(F)(F)C1 (stereo not drawn) [Example 164, N-(5-(cyclopropylmethoxy)pyridin-2-yl)-2-(3,3-difluoro-4-(6-oxo-1,6-dihydropyridin-3-yl)pyrrolidin-1-yl)propanamide]	100 to 3160 nM
C[C@@H](C(=O)Nc1ccc(Oc2ncccc2F)cn1)N1CCC(F)(F)[C@@H](c2ccc(=O)[nH]c2)C1 [Example 65, (S)-2-((S)-4,4-difluoro-3-(6-oxo-1,6-dihydropyridin-3-yl)piperidin-1-yl)-N-(5-((3-fluoropyridin-2-yl)oxy)pyridin-2-yl)propanamide]	10 to 100 nM
C[C@@H](C(=O)Nc1ccc(Oc2ccc(F)cc2)cn1)N1CCC(F)(F)[C@@H](c2c[nH]c(=O)c([C@@H](N)C(F)(F)F)c2)C1 (single isomer, unassigned) [Example 234]	≤ 10 nM
C[C@@H](C(=O)Nc1ccc(Oc2cccnc2)cn1)N1CCC(F)(F)[C@@H](c2ccc(=O)[nH]c2)C1 [Example 59, (S)-2-((S)-4,4-difluoro-3-(6-oxo-1,6-dihydropyridin-3-yl)piperidin-1-yl)-N-(5-(pyridin-3-yloxy)pyridin-2-yl)propanamide]	100 to 3160 nM
C[C@@H](C(=O)Nc1ccc(F)cn1)N1CCC(F)(F)[C@@H](c2cc(N)c(=O)[nH]n2)C1 [Example 143, (S)-2-((R)-3-(5-amino-6-oxo-1,6-dihydropyridazin-3-yl)-4,4-difluoropiperidin-1-yl)-N-(5-fluoropyridin-2-yl)propanamide]	10 to 100 nM
C[C@@H](C(=O)Nc1ccc(Oc2cc(F)c(F)cc2F)cn1)N1CCC(F)(F)[C@@H](c2ccc(=O)[nH]c2)C1 [Example 97, (S)-2-((S)-4,4-difluoro-3-(6-oxo-1,6-dihydropyridin-3-yl)piperidin-1-yl)-N-(5-(2,4,5-trifluorophenoxy)pyridin-2-yl)propanamide]	≤ 10 nM
CC(C(=O)Nc1ccc(Oc2ncc(F)cc2C#N)cn1)N1CCC(F)(F)[C@@H](c2ccc(=O)[nH]c2)C1 (stereo partly drawn) [Example 92, N-(5-((3-cyano-5-fluoropyridin-2-yl)oxy)pyridin-2-yl)-2-((S)-4,4-difluoro-3-(6-oxo-1,6-dihydropyridin-3-yl)piperidin-1-yl)propanamide]	10 to 100 nM
C[C@@H](C(=O)Nc1ccc(OCC2CC2)nn1)N1CCC(F)(F)[C@@H](c2cc[n+]([O-])cc2)C1 (single isomer, unassigned) [Example 109]	100 to 3160 nM

SMILES	IC50
C[C@@H](C(=O)Nc1ccc(Cl)cn1)N1CCC[C@@H](c2c[nH]c(=O)c(N)c2)C1 [Example 170]	100 to 3160 nM
CC(C(=O)Nc1cc2ccn(CC3CC3)c2cn1)N1CCC(F)(F)[C@@H](c2ccc(=O)[nH]c2)C1 (stereo partly drawn) [Example 51, N-(1-(cyclopropyl-methyl)-1H-pyrrolo[2,3-c]pyridin-5-yl)-2-((S)-4,4-difluoro-3-(6-oxo-1,6-dihydropyridin-3-yl)piperidin-1-yl)propanamide]	100 to 3160 nM
CC(N)c1cc(C2CN([C@@H](C)C(=O)Nc3ccc(OCC4CC4)nn3)CCC2(F)F)c[nH]c1=O (stereo partly drawn) [Example 222, (2S)-2-(3-(5-(1-aminoethyl)-6-oxo-1,6-dihydropyridin-3-yl)-4,4-difluoropiperidin-1-yl)-N-(6-(cyclopropylmethoxy)pyridazin-3-yl)propanamide]	10 to 100 nM
CC(C(=O)Nc1ccc(Cc2cccnc2)cn1)N1CCC(F)(F)[C@@H](c2ccc(=O)[nH]c2)C1 (stereo partly drawn) [Example 45, 2-((S)-4,4-difluoro-3-(6-oxo-1,6-dihydropyridin-3-yl)piperidin-1-yl)-N-(5-(pyridin-3-ylmethyl)pyridin-2-yl)propanamide]	3160 to 31600 nM
C[C@@H](C(=O)Nc1ccc(F)cn1)N1CCC(F)(F)[C@@H](c2c[nH]c(=O)c(CN)c2)C1 (single isomer, unassigned) [Example 201]	100 to 3160 nM
C[C@@H](C(=O)Nc1cnc(Oc2cc(F)c(F)cc2F)cn1)N1CCC(F)(F)[C@@H](c2cc[n+]([O-])cc2)C1 [Example 120, 4-((S)-4,4-difluoro-1-((S)-1-oxo-1-((5-(2,4,5-trifluorophenoxy)pyrazin-2-yl)amino)propan-2-yl)piperidin-3-yl)pyridine 1-oxide]	≤ 10 nM
C[C@@H](C(=O)Nc1ccc(OCC2CC2)nn1)[C@H]1CCC(F)(F)[C@@H](c2ccc(=O)[nH]c2)C1 [Example 276, (R)-N-(6-(cyclopropylmethoxy)pyridazin-3-yl)-2-((1S,3R)-4,4-difluoro-3-(6-oxo-1,6-dihydropyridin-3-yl)cyclohexyl)propanamide]	10 to 100 nM
C[C@@H](C(=O)Nc1ccc(OCC2CC2)cn1)N1CCC[C@@H](c2ccc(=O)[nH]n2)C1 (single isomer, unassigned) [Example 185]	100 to 3160 nM
CC(C(=O)Nc1cnc(Oc2ccc(F)cc2F)cn1)N1CCC(F)(F)C(c2cc[n+]([O-])c(C(N)=O)c2)C1 (stereo not drawn) [Example 260, 2-carbamoyl-4-(1-(1-((5-(2,4-difluorophenoxy)pyrazin-2-yl)amino)-1-oxopropan-2-yl)-4,4-difluoropiperidin-3-yl)pyridine 1-oxide]	≤ 10 nM
CC(C)Oc1ccc(NC(=O)C(C)N2CCC(F)(F)[C@@H](c3ccc(=O)[nH]c3)C2)nc1 (stereo partly drawn) [Example 26, 2-((S)-4,4-difluoro-3-(6-oxo-1,6-dihydropyridin-3-yl)piperidin-1-yl)-N-(5-isopropoxy-pyridin-2-yl)propanamide]	100 to 3160 nM
C[C@@H](C(=O)Nc1ccc(Oc2ccc(F)cc2CO)cn1)N1CCC(F)(F)[C@@H](c2cc[n+]([O-])cc2)C1 [Example 273, 4-((S)-4,4-difluoro-1-((S)-1-((5-(4-fluoro-2-(hydroxymethyl)phenoxy)pyridin-2-yl)amino)-1-oxopropan-2-yl)piperidin-3-yl)pyridine 1-oxide]	10 to 100 nM
C[C@@H](C(=O)Nc1ccc(OCC2CC2)cn1)N1CCC(F)(F)[C@@H](c2ccc(=O)[nH]c2)C1 [Example 75, (S)-N-(5-(cyclopropyl-methoxy)pyridin-2-yl)-2-((S)-4,4-difluoro-3-(6-oxo-1,6-dihydropyridin-3-yl)piperidin-1-yl)propanamide]	10 to 100 nM
C[C@@H](C(=O)Nc1cc(F)c(OCC2CC2)cn1)N1CCC(F)(F)[C@@H](c2ccc(=O)[nH]c2)C1 [Example 76, (S)-N-(5-(cyclopropyl-methoxy)-4-fluoropyridin-2-yl)-2-((S)-4,4-difluoro-3-(6-oxo-1,6-dihydropyridin-3-yl)piperidin-1-yl)propanamide]	10 to 100 nM
CC(C(=O)Nc1cnc(Oc2ccc(F)cc2CO)cn1)N1CCC(F)(F)[C@@H](c2cc[n+]([O-])cc2)C1 (stereo partly drawn) [Example 274]	100 to 3160 nM
C[C@@H](C(=O)Nc1ccc(Cl)cn1)N1CCC(F)(F)[C@@H](c2c[nH]c(=O)c(N)c2)C1 [Example 141, (S)-2-((S)-3-(5-amino-6-oxo-1,6-dihydropyridin-3-yl)-4,4-difluoropiperidin-1-yl)-N-(5-chloropyridin-2-yl)propanamide]	100 to 3160 nM
C[C@@H]1C[C@@H](c2ccc(=O)[nH]c2)CN([C@@H](C)C(=O)Nc2ccc(Cl)cn2)C1 [Example 173]	3160 to 31600 nM
